Measurements published in PubChem BioAssay AID248 (DTP/NCI, 2004).
Toxic doses and inconclusive results are not listed. Rule as the data show it: active = T/C of 150% or more; inactive = T/C below 125%.

Test system: L1210 leukemia ip in BDF1 mice, survival T/C
Assay: NCI In Vivo Anticancer Drug Screen. Data for tumor model L1210 Leukemia (intraperitoneal) in B6D2F1 (BDF1) mice
Conditions: endpoint: mean survival time, higher = longer survival
How it was run: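 Read-out is survival time, reported as the treated-group measurement over the vehicle-control measurement.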

[1] = dose: 100.0 mg/kg/injection, schedule: Q01DX001 (ip), vehicle: saline
[2] = dose: 100.0 mg/kg/injection, schedule: Q04DX003 (ip), vehicle: Klucel (hydroxypropylcellulose) (HPC)
[3] = dose: 200.0 mg/kg/injection, schedule: Q04DX003 (ip), vehicle: Klucel (hydroxypropylcellulose) (HPC)
[4] = dose: 400.0 mg/kg/injection, schedule: Q04DX003 (ip), vehicle: Klucel (hydroxypropylcellulose) (HPC)
[5] = dose: 100.0 mg/kg/injection, schedule: Q01DX001 (ip), vehicle: Klucel (hydroxypropylcellulose) (HPC)
[6] = dose: 200.0 mg/kg/injection, schedule: Q01DX001 (ip), vehicle: Klucel (hydroxypropylcellulose) (HPC)
[7] = dose: 100.0 mg/kg/injection, schedule: Q01DX009 (ip), vehicle: saline
[8] = dose: 200.0 mg/kg/injection, schedule: Q01DX009 (ip), vehicle: saline
[9] = dose: 400.0 mg/kg/injection, schedule: Q01DX009 (ip), vehicle: saline
[10] = dose: 200.0 mg/kg/injection, schedule: Q01DX001 (ip), vehicle: saline
[11] = dose: 50.0 mg/kg/injection, schedule: Q01DX009 (ip), vehicle: saline with Tween-80
[12] = dose: 100.0 mg/kg/injection, schedule: Q01DX009 (ip), vehicle: saline with Tween-80
[13] = dose: 100.0 mg/kg/injection, schedule: Q04DX003 (ip), vehicle: saline with Tween-80
[14] = dose: 50.0 mg/kg/injection, schedule: Q01DX001 (ip), vehicle: saline
[15] = dose: 200.0 mg/kg/injection, schedule: Q04DX003 (ip), vehicle: saline with Tween-80
[16] = dose: 100.0 mg/kg/injection, schedule: Q01DX001 (ip), vehicle: other

Measured: T/C

O=C(CC(=O)C(F)(F)F)c1csc2ccccc12
inactive: dose: 15.0 mg/kg/injection, schedule: Q01DX015 (ip), vehicle: other 108 % of control | dose: 25.0 mg/kg/injection, schedule: Q01DX009 (ip), vehicle: saline 92 % of control | dose: 25.0 mg/kg/injection, schedule: Q04DX003 (ip), vehicle: acetone 97 % of control | dose: 30.0 mg/kg/injection, schedule: Q01DX015 (ip), vehicle: other 94 % of control | dose: 50.0 mg/kg/injection, schedule: Q01DX009 (ip), vehicle: saline 92 % of control | dose: 50.0 mg/kg/injection, schedule: Q04DX003 (ip), vehicle: acetone 100 % of control | dose: 60.0 mg/kg/injection, schedule: Q01DX015 (ip), vehicle: other 97 % of control | [1] 95 % of control | dose: 100.0 mg/kg/injection, schedule: Q04DX003 (ip), vehicle: acetone 97 % of control | dose: 120.0 mg/kg/injection, schedule: Q01DX015 (ip), vehicle: other 94 % of control

Cc1nc(N)nc2c1CCC(Nc1ccccc1)S2 (stereo unspecified)
inactive: [2] 106 % of control | [3] 103 % of control | [4] 92 % of control

NC(N)=Nc1ccc(Cc2ccc(N=C(N)N)cc2)cc1
inactive: dose: 12.5 mg/kg/injection, schedule: Q01DX Z (oral), vehicle: saline 105 % of control | dose: 25.0 mg/kg/injection, schedule: Q01DX Z (oral), vehicle: saline 103 % of control | dose: 50.0 mg/kg/injection, schedule: Q01DX Z (oral), vehicle: saline 94 % of control | dose: 100.0 mg/kg/injection, schedule: Q01DX Z (oral), vehicle: saline 93 % of control

CCOC(=O)c1c[nH]c2c(c1=O)c(=O)n(C)c(=O)n2C
inactive: [5] 97 % of control | [6] 101 % of control | dose: 400.0 mg/kg/injection, schedule: Q01DX001 (ip), vehicle: Klucel (hydroxypropylcellulose) (HPC) 94 % of control

O=C(NO)c1ccc(C(=O)NO)c(Br)c1
inactive: [7] 103 % of control | dose: 100.0 mg/kg/injection, schedule: Q04DX003 (ip), vehicle: saline 107 % of control | [8] 112 % of control | dose: 200.0 mg/kg/injection, schedule: Q04DX003 (ip), vehicle: saline 107 % of control | [9] 108 % of control | dose: 400.0 mg/kg/injection, schedule: Q04DX003 (ip), vehicle: saline 105 % of control

COc1cccc(C)c1[N+](=O)[O-]
inactive: [2] 94 % of control | [3] 97 % of control | [4] 105 % of control

O=C(N/N=C/c1cc(Cl)ccc1O)c1cccc2ccccc12
inactive: [1] 94 % of control | [10] 92 % of control | dose: 400.0 mg/kg/injection, schedule: Q01DX001 (ip), vehicle: saline 86 % of control

CCN(CC)CCOc1cccc(C)c1C
inactive: dose: 25.0 mg/kg/injection, schedule: Q01DX009 (ip), vehicle: saline with Tween-80 101 % of control | [11] 101 % of control | dose: 50.0 mg/kg/injection, schedule: Q04DX003 (ip), vehicle: saline with Tween-80 98 % of control | [12] 102 % of control | [13] 90 % of control

COC(=O)/C(C)=C/CC(C)C(=O)OC (stereo unspecified)
inactive: [14] 102 % of control | [1] 96 % of control | [10] 105 % of control

CC#CC(O)(C(=O)OC1CCN(C)CC1)C(C)CC (stereo unspecified)
inactive: [11] 92 % of control | [12] 96 % of control | [13] 120 % of control | [15] 102 % of control

CCc1c(CBr)c(=O)[nH]c2ccccc12
inactive: [16] 96 % of control

O=C(O)CCNC(=O)c1ccccc1
inactive: dose: 87.5 mg/kg/injection, schedule: Q04DX003 (ip), vehicle: saline 97 % of control | dose: 175.0 mg/kg/injection, schedule: Q04DX003 (ip), vehicle: saline 98 % of control | dose: 350.0 mg/kg/injection, schedule: Q04DX003 (ip), vehicle: saline 93 % of control

COc1c(CO)cc(C)cc1CO
inactive: dose: 87.5 mg/kg/injection, schedule: Q04DX003 (ip), vehicle: saline with Tween-80 101 % of control | dose: 175.0 mg/kg/injection, schedule: Q04DX003 (ip), vehicle: saline with Tween-80 124 % of control | dose: 350.0 mg/kg/injection, schedule: Q04DX003 (ip), vehicle: saline with Tween-80 101 % of control

Cc1cc(C)c(C[N+](C)(C)C)c(C)c1
inactive: [14] 108 % of control | [1] 104 % of control

O=C(CCCCCCCCC(=O)N/N=C/c1ccc(Cl)c(Cl)c1)N/N=C/c1ccc(Cl)c(Cl)c1
inactive: [11] 91 % of control | [12] 93 % of control | [13] 89 % of control | [15] 89 % of control

CC1(C)c2ccccc2C(C)(O)c2ccccc21
inactive: [12] 96 % of control | dose: 100.0 mg/kg/injection, schedule: Q04DX003 (ip), vehicle: other 104 % of control | dose: 200.0 mg/kg/injection, schedule: Q01DX009 (ip), vehicle: saline with Tween-80 93 % of control | dose: 200.0 mg/kg/injection, schedule: Q04DX003 (ip), vehicle: other 94 % of control | dose: 400.0 mg/kg/injection, schedule: Q01DX009 (ip), vehicle: saline with Tween-80 93 % of control | dose: 400.0 mg/kg/injection, schedule: Q04DX003 (ip), vehicle: other 107 % of control

CC1C/C(=N/NC(=O)OC(C)(C)C)CC(C)(C)C1 (stereo unspecified)
inactive: dose: 100.0 mg/kg/injection, schedule: Q01DX009 (ip), vehicle: gum acacia 96 % of control | dose: 200.0 mg/kg/injection, schedule: Q01DX009 (ip), vehicle: gum acacia 89 % of control | dose: 400.0 mg/kg/injection, schedule: Q01DX009 (ip), vehicle: gum acacia 87 % of control

O=C(Nc1ccccc1F)OCCc1ccccn1
inactive: dose: 100.0 mg/kg/injection, schedule: Q04DX002 (ip), vehicle: Klucel (hydroxypropylcellulose) (HPC) 102 % of control | dose: 200.0 mg/kg/injection, schedule: Q04DX002 (ip), vehicle: Klucel (hydroxypropylcellulose) (HPC) 105 % of control | dose: 400.0 mg/kg/injection, schedule: Q04DX002 (ip), vehicle: Klucel (hydroxypropylcellulose) (HPC) 91 % of control

CC(Br)C(=O)O (stereo unspecified)
inactive: [14] 94 % of control | [1] 111 % of control

Nc1nc(N)c(-c2ccccc2)c(C(=O)O)n1
inactive: dose: 50.0 mg/kg/injection, schedule: Q01DX001 (ip), vehicle: Klucel (hydroxypropylcellulose) (HPC) 101 % of control | dose: 50.0 mg/kg/injection, schedule: Q04DX003 (ip), vehicle: Klucel (hydroxypropylcellulose) (HPC) 94 % of control | [5] 95 % of control | [2] 105 % of control | [6] 95 % of control | [3] 105 % of control

CC(C)C1CCC(C)(Cl)C2CCC(C)(Cl)CC12 (stereo unspecified)
inactive: [7] 96 % of control | [8] 91 % of control | [9] 89 % of control

O=C(O)C(CO)NS(=O)(=O)Cc1ccccc1 (stereo unspecified)
inactive: [16] 104 % of control | dose: 200.0 mg/kg/injection, schedule: Q01DX001 (ip), vehicle: other 96 % of control | dose: 400.0 mg/kg/injection, schedule: Q01DX001 (ip), vehicle: other 96 % of control

O=C(NCC1CC1)Nc1cccc2ccccc12
inactive: dose: 100.0 mg/kg/injection, schedule: Q01DX009 (ip), vehicle: other 98 % of control | dose: 200.0 mg/kg/injection, schedule: Q01DX009 (ip), vehicle: other 89 % of control | dose: 400.0 mg/kg/injection, schedule: Q01DX009 (ip), vehicle: other 92 % of control
